Like-named read-outs stand apart in the source and are kept apart here.
Assays:
Format in all cases: in vivo
[1] = system: Abutilon theophrasti (ABUTH); assay: Biological Example 1 glasshouse assay for herbicidal activity; details: 312 h, 13 days after application, read-out: percentage phytotoxicity ABUTH
How it was run: (§1)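 Herbicide was applied as an aqueous acetone spray with 0.5% Tween 20 to potted plants either pre-emergence or post-emergence. Injury relative to undamaged plants was rated visually as a percentage 13 days later.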

[2] = system: Alopecurus myosuroides (ALOMY); assay: as above; details: 312 h, 13 days after application, read-out: percentage phytotoxicity ALOMY
How it was run: as §1

[3] = system: Amaranthus retroflexus (AMARE); assay: as above; details: 13 days after application; for pest or weed control at 8 g/ha / pest or weed control at 250 g/ha / pest or weed control at 30 g/ha: Amaranthus retroflexus, 312 h, read-out: percentage phytotoxicity AMARE
How it was run: as §1

[4] = system: Echinochloa crus-galli (ECHCG); assay: as above; details: 13 days after application; for pest or weed control at 250 g/ha / percentage phytotoxicity ECHCG: 250 g/ha
How it was run: as §1

Setaria faberi (SETFA) [5] = assay: as above; details: 312 h, 13 days after application, read-out: percentage phytotoxicity SETFA
How it was run: as §1

[6] = system: Zea mays (ZEAMX, corn, maize, e.g. volunteer corn); assay: as above; details: 13 days after application; for pest or weed control at 8 g/ha / pest or weed control at 30 g/ha / pest or weed control at 250 g/ha: Zea mays, 312 h, read-out: percentage phytotoxicity ZEAMX; for pest or weed control at 250 g/ha / percentage phytotoxicity ZEAMX: 250 g/ha
How it was run: as §1

Avena fatua (AVEFA) = assay: Biological Example 2 glasshouse assay for herbicidal activity; details: post-emergence, 360 h, 14 or 15 DAA, 0.2% v/v X-77, read-out: percentage phytotoxicity AVEFA
How it was run: (§2)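 Glasshouse pots sprayed pre-emergence (1 day after sowing) or post-emergence (~12 days) with active ingredient formulated as IF50 in water plus 0.2% v/v X-77; warm species 24/18 °C, cool species 20/16 °C, 16 h light, 65% humidity. Visual % phytotoxicity scored 14–15 DAA (post) or 20 DAA (pre).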

Setaria faberi (SETFA) [7] = assay: as above; details: post-emergence, 360 h, 14 or 15 DAA, 0.2% v/v X-77, read-out: percentage phytotoxicity SETFA
How it was run: as §2

[8] = system: Triticum aestivum (TRZAW, winter wheat); assay: as above; details: post-emergence, 360 h, 14 or 15 DAA, 0.2% v/v X-77, read-out: percentage phytotoxicity TRZAW
How it was run: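 Visual % phytotoxicity (100% = total damage, 0% = none), scored 14 or 15 DAA post-emergence or 20 DAA pre-emergence. The spray was the IF50 emulsifiable formulation in aqueous 0.2% v/v X-77 at rate-dependent concentration. Glasshouse: 24/18 °C day/night for warm-season BRAPL, 20/16 °C for cool-season wheat, ALOMY and sugarbeet.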

[9] = post-emergence, post-emergence, 250 g/ha
[10] = pre-emergence, pre-emergence, 250 g/ha
[11] = Echinochloa crus-galli, post-emergence, 312 h, post-emergence, read-out: percentage phytotoxicity ECHCG
[12] = Echinochloa crus-galli, pre-emergence, 312 h, pre-emergence, read-out: percentage phytotoxicity ECHCG

## CC#Cc1cc(F)c(C2C(=O)C3CCC(C3)C2=O)c(OC)c1 (stereo not shown) [Compound A1, 3-(2-Fluoro-6-methoxy-4-prop-1-ynyl-phenyl)-bicyclo[3.2.1]octane-2,4-dione]
[1]; post-emergence, post-emergence
  pest or weed control at 8 g/ha: 0%
[1]; pre-emergence, pre-emergence
  pest or weed control at 8 g/ha: 0%
  pest or weed control at 30 g/ha: 0%
[2]; post-emergence
  pest or weed control at 8 g/ha: 80%
  pest or weed control at 30 g/ha: 100%
  pest or weed control at 250 g/ha: 100%
[2]; pre-emergence
  pest or weed control at 8 g/ha: 70%
  pest or weed control at 30 g/ha: 100%
  pest or weed control at 250 g/ha: 100%
[3]; post-emergence, post-emergence
  pest or weed control at 8 g/ha: 0%
[3]; [9]
  pest or weed control at 250 g/ha: 30%
[3]; pre-emergence, pre-emergence
  pest or weed control at 8 g/ha: 0%
  pest or weed control at 30 g/ha: 0%
[3]; [10]
  pest or weed control at 250 g/ha: 20%
[3]; post-emergence, 250 g/ha
  percentage phytotoxicity AMARE: 30%
[4]; [11]
  pest or weed control at 30 g/ha: 100%
  pest or weed control at 250 g/ha: 100%
[4]; [12]
  pest or weed control at 250 g/ha: 100%
[4]; post-emergence
  percentage phytotoxicity ECHCG: 100%
[4]; pre-emergence
  percentage phytotoxicity ECHCG: 100%
Setaria faberi (SETFA) [5]; post-emergence, post-emergence
  pest or weed control at 250 g/ha: 100%
Setaria faberi (SETFA) [5]; pre-emergence, pre-emergence
  pest or weed control at 8 g/ha: 50%
  pest or weed control at 250 g/ha: 100%
[6]; post-emergence, post-emergence
  pest or weed control at 8 g/ha: 100%
  pest or weed control at 30 g/ha: 100%
  pest or weed control at 250 g/ha: 100%
[6]; pre-emergence, pre-emergence
  pest or weed control at 8 g/ha: 60%
  pest or weed control at 30 g/ha: 100%
  pest or weed control at 250 g/ha: 100%
[6]; post-emergence
  percentage phytotoxicity ZEAMX: 100%
[6]; pre-emergence
  percentage phytotoxicity ZEAMX: 100%
Avena fatua (AVEFA)
  pest or weed control at 30 g/ha: 90%
  pest or weed control at 250 g/ha: 100%
Setaria faberi (SETFA) [7]
  pest or weed control at 30 g/ha: 90%
  pest or weed control at 250 g/ha: 100%
[8]
  plant injury at 30 g/ha: 70%
  plant injury at 250 g/ha: 100%

## CC#Cc1cc(F)c(C2=C(OC(=O)SCC)C3CCC(C3)C2=O)c(OC)c1 (stereo not shown) [Compound P4]
[1]; post-emergence, post-emergence
  pest or weed control at 8 g/ha: 10%
  pest or weed control at 30 g/ha: 20%
  pest or weed control at 250 g/ha: 80%
[1]; pre-emergence, pre-emergence
  pest or weed control at 30 g/ha: 0%
  pest or weed control at 250 g/ha: 40%
[2]; post-emergence
  pest or weed control at 8 g/ha: 80%
  pest or weed control at 30 g/ha: 90%
  pest or weed control at 250 g/ha: 90%
[2]; pre-emergence
  pest or weed control at 30 g/ha: 80%
  pest or weed control at 250 g/ha: 100%
[3]; post-emergence, post-emergence
  pest or weed control at 8 g/ha: 20%
  pest or weed control at 30 g/ha: 30%
[3]; [9]
  pest or weed control at 250 g/ha: 20%
[3]; pre-emergence, pre-emergence
  pest or weed control at 30 g/ha: 30%
[3]; [10]
  pest or weed control at 250 g/ha: 60%
[4]; Echinochloa crus-galli, post-emergence, 312 h, post-emergence, 8 g/ha, read-out: percentage phytotoxicity ECHCG
  pest or weed control at 8 g/ha: 90%
[4]; [11]
  pest or weed control at 30 g/ha: 100%
  pest or weed control at 250 g/ha: 100%
[4]; [12]
  pest or weed control at 30 g/ha: 100%
  pest or weed control at 250 g/ha: 100%
Setaria faberi (SETFA) [5]; post-emergence, post-emergence
  pest or weed control at 8 g/ha: 70%
  pest or weed control at 30 g/ha: 80%
  pest or weed control at 250 g/ha: 100%
Setaria faberi (SETFA) [5]; pre-emergence, pre-emergence
  pest or weed control at 30 g/ha: 60%
  pest or weed control at 250 g/ha: 90%
[6]; post-emergence, post-emergence
  pest or weed control at 8 g/ha: 100%
  pest or weed control at 30 g/ha: 100%
  pest or weed control at 250 g/ha: 100%
[6]; pre-emergence, pre-emergence
  pest or weed control at 30 g/ha: 90%
  pest or weed control at 250 g/ha: 100%
Avena fatua (AVEFA)
  pest or weed control at 30 g/ha: 90%
  pest or weed control at 250 g/ha: 100%
Setaria faberi (SETFA) [7]
  pest or weed control at 30 g/ha: 90%
  pest or weed control at 250 g/ha: 100%
[8]
  plant injury at 30 g/ha: 80%
  plant injury at 250 g/ha: 100%

— patent US10590143B2, “Herbicidally active (alkynyl-phenyl)-substituted cyclic dione compounds and derivatives thereof” (Syngenta Limited, priority 2013, dated 2020)
